Measurements as given in patent US10463592B2, “Peptide with anti-aging effect and use thereof” (Osaka University, priority 2013, dated 2019).
Where no end group is shown, it is not given here.

How the values were obtained:
CD86 expression in THP-1 = experiment: h-CLAT assay, CD86 expression; type: cell-based, human; conditions: positive if RFI of CD86>150, FIG. 2
Protocol: Into a 75-cm^2 flask was placed 50 mL of a suspension of the human monocytic cell line THP-1 (JCRB accession number: JCRB0112) at a density of 2.0×10^5 cells/mL in RPMI 1640 culture medium containing 10% FBS and 0.05 mM mercaptoethanol. The cells were precultured for 48 hours. The precultured THP-1 cells were harvested by centrifugation and suspended at 2.0×10^6 cells/mL in RPMI 1640 culture medium containing 10% FBS and 0.05 mM mercaptoethanol. To each well of 24-well plates, 500 μL of the cell suspension was seeded. To each well containing the seeded cell suspension, 500 μL of each peptide in the same culture medium was added. After 24 hours of incubation, the cells were harvested by centrifugation and were washed twice with PBS containing 0.1% BSA (FACS buffer). The cells were then suspended in 600 μL of FACS buffer containing a 0.01% human γ-globulin solution (Sigma, G2388) and incubated at 4° C. for 10 minutes to block the Fc receptor. The cell suspension was then split into three 180-μL aliquots for conducting an antibody reaction. The aliquots were each transferred to a 1.5-mL tube and centrifuged to give a pellet. To each pellet was added 50 μL of each of solutions of three different FITC-conjugated antibodies, i.e., FITC-conjugated CD86 antibody (Pharmingen; Cat #555657), FITC-conjugated CD54 antibody (Dako; Cat #F7143) and FITC-conjugated isotype control (Mouse IgG) antibody (Dako; Cat #X0927), that were adjusted to an appropriate concentration with FACS buffer. The mixture was incubated at 4° C. for 30 minutes. After the incubation, the cells were harvested by centrifugation and washed twice with FACS buffer. The cells were harvested by centrifugation and suspended in 200 μL of FACS buffer containing 0.625 μg/mL propidium iodide. Then, 1×10^4 living cells were analyzed by flow cytometry to determine the expression levels of the cell surface antigens. No gating on forward or side scatter was used. The relative fluorescence intensities (RFIs) were calculated from the mean of the measured fluorescence intensities (MFIs) in accordance with the following equation.
(§1) From the survival rates and the RFI values of CD86 and CD54 expressions, the sensitization potentials were evaluated. The sensitization potentials of the test samples were determined to be positive when the RFIs of the antigen expressions in the sample treatment groups satisfy the following equations: the RFI of CD86>150, and the RFI of CD54>200. (2) Results

CD54 expression in THP-1 = experiment: h-CLAT assay, CD54 expression; type: cell-based, human; conditions: positive if RFI of CD54>200; FIG. 3
Protocol: (§2) Into a 75-cm^2 flask was placed 50 mL of a suspension of the human monocytic cell line THP-1 (JCRB accession number: JCRB0112) at a density of 2.0×10^5 cells/mL in RPMI 1640 culture medium containing 10% FBS and 0.05 mM mercaptoethanol. The cells were precultured for 48 hours. The precultured THP-1 cells were harvested by centrifugation and suspended at 2.0×10^6 cells/mL in RPMI 1640 culture medium containing 10% FBS and 0.05 mM mercaptoethanol. To each well of 24-well plates, 500 μL of the cell suspension was seeded. To each well containing the seeded cell suspension, 500 μL of each peptide in the same culture medium was added. […] Then, 1×10^4 living cells were analyzed by flow cytometry to determine the expression levels of the cell surface antigens. […] The relative fluorescence intensities (RFIs) were calculated from the mean of the measured fluorescence intensities (MFIs) in accordance with the following equation.
as §1, with “(2) Results” left out

[1] = system: human monocytic cell line THP-1; experiment: Sensitization test by the h-CLAT assay (overall evaluation); type: cell-based; conditions: even at high concentrations; positive if RFI of CD86>150 and RFI of CD54>200; 24 hours
Protocol: as §2
as §1, with “(2) Results” left out

Molecule | sensitization potential for CD86 expression (CD86 expression in THP-1; at high concentrations) | sensitization potential for CD86 expression (CD86 expression in THP-1; at low concentrations) | sensitization potential for CD54 expression (CD54 expression in THP-1) | sensitization potential [1]
CC[C@H](C)[C@H](NC(=O)[C@H](CCCCN)NC(=O)[C@H](CCC(=O)O)NC(=O)[C@H](CCCCN)NC(=O)[C@H](CO)NC(=O)[C@H](CCCCN)NC(=O)[C@H](CCCNC(=N)N)NC(=O)[C@H](Cc1ccccc1)NC(=O)[C@H](Cc1ccccc1)NC(=O)[C@H](CC(=O)O)NC(=O)CNC(=O)[C@H](CC(C)C)NC(=O)[C@@H](N)CC(C)C)C(=O)NCC(=O)N[C@@H](CCCCN)C(=O)N[C@@H](CCC(=O)O)C(=O)N[C@@H](Cc1ccccc1)C(=O)N[C@@H](CCCCN)C(=O)N[C@@H](CCCNC(=N)N)C(=O)N[C@H](C(=O)N[C@H](C(=O)N[C@@H](CCC(N)=O)C(=O)N[C@@H](CCCNC(=N)N)C(=O)N[C@H](C(=O)N[C@@H](CCCCN)C(=O)N[C@@H](CC(=O)O)C(=O)N[C@@H](Cc1ccccc1)C(=O)N[C@@H](CC(C)C)C(=O)N[C@@H](CCCNC(=N)N)C(=O)N[C@@H](CC(N)=O)C(=O)N[C@@H](CC(C)C)C(=O)N[C@H](C(=O)N1CCC[C@H]1C(=O)N[C@@H](CCCNC(=N)N)C(=O)N[C@H](C(=O)N[C@@H](CCC(=O)O)C(=O)N[C@@H](CO)C(=O)O)[C@@H](C)O)C(C)C)[C@@H](C)CC)C(C)C)[C@@H](C)CC [LL-37] | positive | negative | negative | –
Ac-IFLHR-NH2 [OSK-6, IFLHR] | – | – | – | negative
GIGKFLHSAKKFGKAFVGEIMNS [magainin] | positive | negative | negative | –
